Results: patent US12037324B2, “Biarylmethyl heterocycles” (Université de Montréal, priority 2016, dated 2024)

Legend:
[1] = biological target: T1, hAT1R (Homo sapiens, UniProt P30556); assay: cell-based; details: agonist mode; for EC50: read-out: BRET P63 EC50
T1 sequence (P30556 1-359): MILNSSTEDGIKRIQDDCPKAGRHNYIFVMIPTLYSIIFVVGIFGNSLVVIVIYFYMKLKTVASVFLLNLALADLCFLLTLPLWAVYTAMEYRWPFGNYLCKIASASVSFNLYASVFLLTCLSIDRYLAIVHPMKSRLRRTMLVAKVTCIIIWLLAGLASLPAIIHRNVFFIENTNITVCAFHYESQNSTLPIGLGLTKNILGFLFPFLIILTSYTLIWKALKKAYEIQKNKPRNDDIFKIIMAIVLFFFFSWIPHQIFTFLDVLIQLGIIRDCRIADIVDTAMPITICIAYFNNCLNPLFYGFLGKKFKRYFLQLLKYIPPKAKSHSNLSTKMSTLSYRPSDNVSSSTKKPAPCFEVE

[2] = biological target: T1, hAT1R; assay: BRET Gq biosensor assay, agonist response, HEK293 cells; format: cell-based; details: section of the 42nd table directly before the BRET P63 section
Summary of the method: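 HEK293 cells co-transfected with signal-peptide-optimized hAT1R plus Gαq-Rluc, Gβ1 and GFP-Gγ1, assayed 48 h later in Tyrode's buffer pH 7.4. Coelenterazine (2 μM final) added, then compound; BRET2 (515/410 nm) read after 5 min at room temperature. EC50 by 4-parameter fit, normalized to unstimulated (0%) and maximal AngII (100%).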

[3] = biological target: T1, hAT1R; assay: cell-based; details: section of the 42nd table ending at r951, example numbering restarts after the DiscoveRx section; read-out: β-arrestin2 EC50
[4] = biological target: T1, hAT1R; assay: BRET β-arrestin2 biosensor assay, higher receptor expression (hAT1R 5 ng/well), HEK293 cells; format: cell-based; details: for EC50: High AT1R Expression
[5] = biological target: T2, AGTR1 (Homo sapiens, UniProt P30556); assay: DiscoveRx β-arrestin2 recruitment assay (enzyme complementation, Pathunter CHO-K1 AGTR1 β-arrestin cell line); format: cell-based; details: DiscoveRx β-arrestin2 recruitment; for DiscoveRx β-arrestin2 Ymax (%): maximal response
T2 construct: host or cells: Pathunter CHO-K1 AGTR1 β-arrestin cell line (CHO-K1)
T2 sequence (P30556 1-359): T1 sequence (P30556 1-359)
Summary of the method: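 CHO-K1 cells expressing AGTR1 with β-arrestin2 enzyme-complementation reporter, plated 14-16 h ahead in 1% serum medium, then exposed to compounds for 90 min at 37° C. Chemiluminescence read after 1 h detection. EC50 (agonist) or IC50 (antagonist) from 4-parameter logistic fit; activity as percentage of All maximal effect.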

Row | Structure (SMILES) | BRET P63 Ymax [1] [%] | EC50 [1] [nM] | EC50 [2] [nM] | EC50 [3] [nM] | BRET β-Arrestin2 High AT1R Expression Ymax (%) [4] [%] | EC50 [4] [nM] | EC50 [5] [nM] | DiscoveRx β-arrestin2 Ymax (%) [5] [%]
1 | CCOc1nc2cccc(C(=O)O)c2n1Cc1ccc(-c2cc(-c3ccccc3)ccc2-c2noc(=O)[nH]2)cc1 [Example 311, 2-ethoxy-1-((6′-(5-oxo-4,5-dihydro-1,2,4-oxadiazol-3-yl)-[1,1′:3′,1″-terphenyl]-4-yl)methyl)-1H-benzo[d]imidazole-7-carboxylic acid] | 13.2 | 3.6 | 18.1 | 4.2 | 92.0 | 1.5 | 3.9 | 77.6
2 | CCCCc1ncc(C(=O)NCc2cnn(C)c2)n1Cc1ccc(-c2cc(-c3ccccc3)ccc2-c2nn[nH]n2)cc1 [Example 346] | 6.0 | 19.3 | 67.1 | 11.1 | 92.1 | 7.1 | 13 | 44.5
3 | CCCCC(=O)N(Cc1ccc(-c2cc(-c3cc(C)ccn3)ccc2-c2nn[nH]n2)cc1)C1(C(=O)O)CCCCC1 [Example 295] | 12.9 | 120 | 217 | 39 | 92.5 | 14 | 47.5 | 60.3
4 | CCCCc1nc(Cl)c(C(=O)O)n1Cc1ccc(-c2cc(-c3c[nH]c4ccccc34)ccc2-c2nn[nH]n2)cc1 [Example 391] | – | > 100000 | 181 | 11 | 78.3 | 11.7 | 45.8 | 23.3
5 | CCCCc1nc(Cl)c(C(=O)O)n1Cc1ccc(-c2cc(N3CCC[C@H](C)C3)ccc2-c2nn[nH]n2)cc1 [Example 418, (S)-2-butyl-4-chloro-1-((5′-(3-methylpiperidin-1-yl)-2′-(2H-tetrazol-5-yl)-[1,1′-biphenyl]-4-yl)methyl)-1H-imidazole-5-carboxylic acid] | – | > 10000 | 478 | 154 | – | – | 67.8 | 31.2
6 | CCOc1nc2cccc(C(=O)O)c2n1Cc1ccc(-c2cc(Oc3ccccc3)ccc2-c2nn[nH]n2)cc1 [Example 330, 2-Ethoxy-1-((5′-phenoxy-2′-(2H-tetrazol-5-yl)-[1,1′-biphenyl]-4-yl)methyl)-1H-benzo[d]imidazole-7-carboxylic acid] | – | > 10000 | 40.1 | 16.7 | – | – | 13.2 | 57.8
7 | CCOc1nc2cccc(C(=O)O)c2n1Cc1ccc(-c2cc(-c3cc(N(C)C)ccn3)ccc2-c2noc(=O)[nH]2)cc1 [Example 305] | 24.3 | 67 | 82.9 | 90.3 | – | – | 25.5 | 69.3
8 | CCCc1nc(CC)c(C(=O)O)n1Cc1ccc(-c2cc(-c3ccccc3)ccc2-c2nn[nH]n2)c(C)c1 [Example 425] | – | > 10000 | 105 | 47.4 | – | – | 27.3 | 54.2
9 | CCOc1nc2cccc(C(=O)O)c2n1Cc1ccc(-c2cc(-c3cnn(C(F)F)c3)ccc2-c2nn[nH]n2)cc1 [Example 327, 1-((5′-(1-(difluoromethyl)-1H-pyrazol-4-yl)-2′-(2H-tetrazol-5-yl)-[1,1′-biphenyl]-4-yl)methyl)-2-ethoxy-1H-benzo[d]imidazole-7-carboxylic acid] | 10.8 | 26.9 | 22.1 | 33 | – | – | 9.4 | 64.2
10 | CCOc1nc2cccc(C(=O)O)c2n1Cc1ccc(-c2cc(-c3cnc4ccccc4c3)ccc2-c2nn[nH]n2)cc1 [Example 326, 2-ethoxy-1-((5′-(quinolin-3-yl)-2′-(2H-tetrazol-5-yl)-[1,1′-biphenyl]-4-yl)methyl)-1H-benzo[d]imidazole-7-carboxylic acid] | – | > 100000 | 16.2 | 24.7 | – | – | 9.5 | 45.9
11 | CCOc1nc2cccc(C(=O)O)c2n1Cc1ccc(-c2cc(-c3cc(OC(F)F)ccn3)ccc2-c2noc(=O)[nH]2)cc1 [Example 302] | 25.2 | 10.2 | 47.3 | 14.9 | – | – | 10.2 | 61.1
12 | CCCCc1nc(Cl)c(C(=O)O)n1Cc1ccc(-c2cc(Oc3ccccn3)ccc2-c2nn[nH]n2)cc1 [Example 427, 2-Butyl-4-chloro-1-((5′-(pyridin-2-yloxy)-2′-(2H-tetrazol-5-yl)-[1,1′-biphenyl]-4-yl)methyl)-1H-imidazole-5-carboxylic acid] | – | > 10000 | 575 | > 10000 | – | – | 89.9 | 19.6
13 | CCOc1nc2cccc(C(=O)O)c2n1Cc1ccc(-c2cc(N3CCC[C@@H](C)C3)ccc2-c2nn[nH]n2)cc1 [Example 323] | – | > 10000 | > 100000 | 24.4 | – | – | 22.2 | 43.2
14 | CCCCc1nc(Cl)c(C(=O)O)n1Cc1ccc(-c2cc(N3CCC[C@@H](C)C3)ccc2-c2nn[nH]n2)cc1 [Example 419, (R)-2-butyl-4-chloro-1-((5′-(3-methylpiperidin-1-yl)-2′-(2H-tetrazol-5-yl)-[1,1′-biphenyl]-4-yl)methyl)-1H-imidazole-5-carboxylic acid] | – | > 10000 | 228 | 85.2 | – | – | 121 | 33.9
15 | CCc1nc2c(C)cc(C)nc2n1Cc1ccc(-c2cc(-c3cccc(C)c3)ccc2-c2nn[nH]n2)cc1F [Example 266] | 19.1 | 5.7 | 26.1 | 5.7 | – | – | 64.3 | 75.8
16 | CCOc1nc2cccc(C(=O)O)c2n1Cc1ccc(-c2cc(Oc3ccccc3F)ccc2-c2nn[nH]n2)cc1 [Example 334] | 13.9 | 15.7 | 41.3 | 5.9 | – | – | 10.8 | 73.5
17 | CCOc1nc2cccc(C(=O)O)c2n1Cc1ccc(-c2cc(Oc3cccnc3)ccc2-c2nn[nH]n2)cc1 [Example 333] | – | > 10000 | 17.8 | 11.3 | – | – | 10 | 67.8
18 | CCCc1nc(CC)c(C(N)=O)n1Cc1ccc(-c2cc(-c3ccccc3)ccc2-c2nn[nH]n2)c(C)c1 [Example 426] | – | > 10000 | 86 | 49.6 | – | – | 34.2 | 52.5
19 | CCc1nc2c(C)cc(C)nc2n1Cc1ccc(-c2cc(-c3cccc(C)c3)ccc2-c2nn[nH]n2)c(F)c1 [Example 267] | 17.7 | 7.5 | 36.6 | 8.2 | – | – | 9.8 | 62.5
20 | CCOc1nc2cccc(C(=O)O)c2n1Cc1ccc(-c2cc(-n3ccc(C(F)(F)F)n3)ccc2-c2nn[nH]n2)cc1 [Example 338] | – | > 10000 | 30.8 | 16.3 | – | – | 17.8 | 68.9
21 | CCOc1nc2cccc(C(=O)O)c2n1Cc1ccc(-c2cc(N3CCC[C@H](C)C3)ccc2-c2nn[nH]n2)cc1 [Example 324] | – | > 10000 | 42.3 | 63.2 | – | – | 17.4 | 55.2
22 | CCOc1nc2cccc(C(=O)O)c2n1Cc1ccc(-c2cc(Oc3ccc(F)cc3)ccc2-c2nn[nH]n2)cc1 [Example 336] | – | > 10000 | 47.2 | 12.4 | – | – | 16.4 | 61.4
23 | CCc1nc2c(C)cc(C)nc2n1Cc1ccc(-c2cc(-c3ccccc3)ccc2-c2nn[nH]n2)c(F)c1 [Example 265] | 17.9 | 7 | 29.2 | 18.9 | – | – | 30.1 | 53.4
24 | CCOc1nc2cccc(C(=O)O)c2n1Cc1ccc(-c2cc(-c3cc(C)ccn3)ccc2-c2nn[nH]n2)cc1 [Example 309, 2-ethoxy-1-((5′-(4-methylpyridin-2-yl)-2′-(2H-tetrazol-5-yl)-[1,1′-biphenyl]-4-yl)methyl)-1H-benzo[d]imidazole-7-carboxylic acid] | 28.6 | 3.8 | 7.9 | 6.5 | – | – | 4.1 | 80.4
